The source of these data is patent US7973145B2, “Sulfonated sugar compounds, pharmaceutical compositions which contain the same, and methods of treating tumors with the same” (priority 2007, dated 2011).

In data set [1] the test system is bone marrow cells (immature erythrocytes). The data set is described as follows: Micronucleus test by rat intravenous administration. Format: in vivo. To be noted: male SD rats. On the procedure:
Five male SD rats were assigned to each of the six groups (1) to (6): The test solutions for (1) to (5) contained a normal saline solution containing 10% CREMOPHOR EL as the solvents, and the above-described doses were administered to the rats twice in total for two consecutive days. To the positive control group, the above-described dose was administered once. About 24 hours after the administration, bone marrow smears were prepared. Two thousands of immature erythrocytes were counted for each individual, and the incidence of immature erythrocytes having a micronucleus was calculated. As the index of marrow proliferation suppression, the proportion of immature erythrocytes contained in 1000 erythrocytes was calculated. […] In addition, no influence was found on the marrow proliferation suppression in the test substance-administered group.

For data set [2], the system named is human vascular endothelial cells and human fibrocytes. The data set is described as follows: Tube formation inhibition test using vascular endothelial cell-fibrocyte cocultivation system (angiogenesis kit KZ-1000). Format: cell-based. To be noted: FIG. 10, combined with 2 Gy radiation, calcium(salt)-substituted compound, 10 ng/ml VEGF-A. How it is done: Using a angiogenesis kit (KZ-1000) manufactured by Kurabo Industries Ltd., which is a cocultivation system for human vascular endothelial cells and human fibrocytes, the effects of αSQAP C10:0, αSQAP C14:0, αSQAP C18:0, αSQAP C22:0, βSQAP C18:0, and βSQAP C18:1 on tube formation were examined. Cultivation for tube formation using the kit was conducted according to the manufacturer's instruction manual.
Using a medium containing a final concentration of 10 ng/ml of VEGF-A and being designed specifically for angiogenesis, the respective SQAP compounds were prepared to have intended concentrations. On Day 1 of the cell cultivation, special media each containing SQAP compounds at the respective concentrations and DMSO (negative control) were added to the cultivation systems. The systems were cultivated for 30 minutes, and irradiated with 2 Gy of cobalt 60. Thereafter, on Days 4, 7, and 10 of the cultivation, the media were replaced with newly prepared special media containing SQAP or DMSO. The media were removed on Day 11 of the cultivation, fixed with 70% ethanol, and the formed tubes were stained with anti-human CD31 antibody. The stained figures were photographed under an optical microscope, and the quantity of tube formation was calculated by the image analysis. The angiogenesis index was calculated according to the manufacturer's instruction manual.

For data set [3], the system named is Human esophageal squamous cell carcinoma cells TE-8. As to the kind of experiment: Radiosensitizing effect test, tumor-bearing mouse, human esophageal squamous cell carcinoma. It is filed as in vivo, KSN nude mice. How it is done: (§1) The radiosensitizing effect was examined through tumor-bearing mouse experiment.
Human esophageal squamous cell carcinoma cells TE-8 were transplanted into the right femoral region of KSN nude mice in a ratio of 1×10^6 cells per individual. Subsequently, the mice were bred for about 14 days to form a tumor mass of about 150 mm^3 in each individual. Thereafter, four mice were assigned to each of the following groups (1) to (4):
(§2) The drug was administered from Day 1 to Day 5, 2 mg/kg once a day. The subjects were exposed to radiation emitted from an X-ray generator (HS-225, manufactured by Shimadzu Co., Ltd.) at a dose of 2 Gy on Day 1 and Day 4. The tumor volume was calculated according to the calculation formula: (minor axis)^2×major axis×0.5.
This experiment was conducted in the same manner as Example V-1, except that the drug dose administered from Day 1 to Day 5 was 1 mg/kg once a day, and the radiation dose was 4 Gy, and the tumor volume was measured.
Human esophageal squamous cell carcinoma cells TE-8 were transplanted into the right femoral region of KSN nude mice in a ratio of 1×10^6 cells per individual. After a tumor mass of about 50 mm^3 was formed in each individual, four mice were assigned to each of the four groups (1) to (4):
The drug was administered intraperitoneally from Day 1 to Day 5, 1 mg/kg once a day. The subjects were exposed to radiation emitted from an X-ray generator (HS-225, manufactured by Shimadzu Co., Ltd.) at a dose of 4 Gy on Day 1 and Day 4.

The test system of data set [4] is Human colonic adenocarcinoma cells SW480. The data set is described as follows: Antineoplastic effect test (drug alone), tumor-bearing mouse. Conditions: Example VI, FIG. 9; calcium(salt)-substituted compound alone, intraperitoneally 20 mg/kg once a day Day 1 to Day 14. It is filed as in vivo, KSN nude mice. How it is done:
Human colonic adenocarcinoma cells SW480 were transplanted into the right femoral region of KSN nude mice in a ratio of 2×10^6 cells per individual. After a tumor mass of about 50 mm^3 was formed in each individual, four mice were assigned to each of the two groups (1) and (2):
The drug was administered intraperitoneally from Day 1 to Day 14, 20 mg/kg once a day.

In data set [5] the test system is Salmonella typhimurium and Escherichia coli indicator bacterial strains. The data set is described as follows: Reverse mutation assay (Ames test). Conditions: 2 μg to 5000 μg per plate, presence or absence of S9 mix, all five strains.
Data set [6] deals with Human colonic adenocarcinoma cells SW480. As to the kind of experiment: Radiosensitizing effect test, tumor-bearing mouse, human colonic adenocarcinoma. Format: in vivo, KSN nude mice. On the procedure: as §1
Human colonic adenocarcinoma cells SW480 were transplanted into the right femoral region of KSN nude mice in a ratio of 1×10^6 cells per individual. Subsequently, the mice were bred for about 14 days to form a tumor mass of about 150 mm^3 in each individual.
as §2
Human colonic adenocarcinoma cells SW480 were transplanted into the right femoral region of KSN nude mice in a ratio of 2×10^6 cells per individual. After a tumor mass of about 50 mm^3 was formed in each individual, four mice were assigned to each of the four groups (1) to (4):
The drug was administered from the tail vein from Day 1 to Day 5, 1 mg/kg once a day. The subjects were exposed to radiation emitted from an X-ray generator (HS-225, manufactured by Shimadzu Co., Ltd.) at a dose of 2 Gy on Day 1 and Day 4.

Data set [7] in a line: Solubility measurement in injectable water. Conditions: 1 g in 5 ml of injectable water. It is filed as physicochemical.
Another data set has as its system SD rats. The data set is described as follows: Single dose (acute) toxicity test. It is filed as in vivo. To be noted: female and male SD rats, single dose via tail vein. On the procedure:
Using αSQAP C18:0, an acute toxicity test was conducted on rats. Five female and five male SD rats of 5 to 6 weeks old were assigned to each of the groups (1) to (7):
The test solution for (1) and (4) to (7) contained a normal saline solution containing 10% CREMOPHOR EL, (2) contained a normal saline solution containing 2.5% CREMOPHOR EL, and (3) contained a normal saline solution containing 5% CREMOPHOR EL as the solvents.

Setting [8] is: intravenous, 25 to 200 mg/kg twice for two consecutive days.
The mark [9] stands for this setting: final concentrations of 5, 10, and 20 μM.
Setting [10] is: Examples V-5 and V-6, FIG. 7 and 8, calcium(salt)-substituted compound, intraperitoneally 1 mg/kg once a day Day 1 to Day 5 plus X-ray 4 Gy on Day 1 and Day 4.
Where [11] appears, read: final concentrations of 5 and 10 μM.

As to “3-O-(6-sulfo-α-D-quinovopyranosyl)-1-O-stearoyl-propane-1,3-diol calcium salt [αSQAP C18:0 calcium salt]”, the “incidence of micronuclei (immature erythrocytes having a micronucleus) in comparison with the non-administered group” value in data set [1] (intravenous, 25, 50, 100, 200 mg/kg twice for two consecutive days, bone marrow about 24 hours after) is on record as “no significant increase”. Further, in data set [1] (setting [8]), the “chromosomal aberration in bone marrow cells” value was “inducing no chromosomal aberration” and the “marrow proliferation suppression (proportion of immature erythrocytes in 1000 erythrocytes)” value is “no influence”.
Turning to `CCCCCCCCCC(=O)OCCCO[C@H]1O[C@H](CS(=O)(=O)[O-])[C@@H](O)[C@H](O)[C@H]1O.[Na+]` [αSQAP C10:0, 3-O-(6-sulfo-α-D-quinovopyranosyl)-1-O-decanoyl-propane-1,3-diol sodium salt], in data set [2] (setting [9]), the tube formation entry is listed as “inhibited tube formation in a concentration-dependent manner”. In addition, the “increase of the tumor volume, drug plus radiotherapy, in comparison with other groups” value (“increase of the tumor volume … with other groups” for short) in data set [3] (setting [10]) is on record as “most suppressed”.
Turning to `CCCCCCCCCCCCCC(=O)OCCCO[C@H]1O[C@H](CS(=O)(=O)[O-])[C@@H](O)[C@H](O)[C@H]1O.[Na+]` [αSQAP C14:0, 3-O-(6-sulfo-α-D-quinovopyranosyl)-1-O-myristoyl-propane-1,3-diol sodium salt], the tube formation entry in data set [2] (setting [9]) is “inhibited tube formation in a concentration-dependent manner”.
Consider `CCCCCCCCCCCCCCCCCC(=O)OCCCO[C@H]1O[C@H](CS(=O)(=O)[O-])[C@@H](O)[C@H](O)[C@H]1O.[Na+]` [αSQAP C18:0, 3-O-(6-sulfo-α-D-quinovopyranosyl)-1-O-stearoyl-propane-1,3-diol sodium salt], for which the “increase of the tumor volume in comparison with the non-administered group” value in data set [4] was “markedly suppressed”. The mutagenicity entry in data set [5] is recorded as “negative”. The “number of revertant colonies” value in data set [5] (calcium(salt)-substituted compound) was “did not increase”. In data set [6] (Example V-3, FIG. 5, 2 mg/kg once a day Day 1 to Day 5 plus X-ray 2 Gy on Day 1 and Day 4), the “increase of the tumor volume, drug plus radiotherapy” value is on record as “markedly suppressed”. For the same molecule, the “increase of the tumor volume … with other groups” value in data set [6] (Example V-4, FIG. 6, calcium(salt)-substituted compound, tail vein 1 mg/kg once a day Day 1 to Day 5 plus X-ray 2 Gy on Day 1 and Day 4) is listed as “most suppressed”; in data set [3] (Example V-2, FIG. 4, 1 mg/kg once a day Day 1 to Day 5 plus X-ray 4 Gy) it was “most strongly suppressed”; in data set [3] (setting [10]), “most suppressed”. Besides, in data set [7] (25° C.), the “solubility evaluation by the criteria of the general rules Japanese Pharmacopeia” value is given as “readily soluble”. Further, in data set [7] (strongly shaken at 25° C.), the “dissolution in injectable water” value is “immediately dissolved”. Moreover, in data set [2] (setting [9]), the tube formation entry is “inhibited tube formation in a concentration-dependent manner”. For the same molecule, the “suppression of the increase of the tumor volume compared with radiotherapy alone” value in data set [3] (Example V-1, FIG. 3, drug alone (un-irradiated), 2 mg/kg once a day Day 1 to Day 5, versus 2 Gy on Day 1 and Day 4 alone) was “at the same level”. Further, the “increment of the tumor volume versus non-administered, un-irradiated group” value in data set [3] (Example V-1, FIG. 3, drug alone (un-irradiated), 2 mg/kg once a day Day 1 to Day 5, from about Day 10) is recorded as “fell below that in the (1) non-administered, un-irradiated group”. In data set [3] (Example V-2, FIG. 4, drug alone (un-irradiated), 1 mg/kg once a day Day 1 to Day 5), the “increment in the tumor volume versus non-administered, un-irradiated group” value is “smaller than that in the (1) non-administered, un-irradiated group”. Also, in the data set with SD rats (25 to 800 mg/kg, observed for two days), the “mortality during the test period” value is recorded as “No individual died”. The lethal dose entry with SD rats (estimated) is “higher than 800 mg/kg”.
Turning to `CCCCCCCCCCCCCCCCCCCCCC(=O)OCCCO[C@H]1O[C@H](CS(=O)(=O)[O-])[C@@H](O)[C@H](O)[C@H]1O.[Na+]` [αSQAP C22:0, 3-O-(6-sulfo-α-D-quinovopyranosyl)-1-O-behenoyl-propane-1,3-diol sodium salt], in data set [2] (setting [9]), the tube formation result is on record as “inhibited tube formation in a concentration-dependent manner”.
As to `CCCCCCCCCCCCCCCCCC(=O)OCC(O)CO[C@H]1O[C@H](CS(=O)(=O)[O-])[C@@H](O)[C@H](O)[C@H]1O.[Na+]` (stereo partly drawn) [αSQMG C18:0, 3-O-(6-sulfo-α-D-quinovopyranosyl)-1-O-stearoyl-glycerol sodium salt, reference compound], in data set [3] (Example V-1, FIG. 3, 2 mg/kg once a day Day 1 to Day 5 plus X-ray 2 Gy on Day 1 and Day 4), the “increase of the tumor volume … with other groups” value is “most suppressed”.
Regarding `CCCCCCCCCCCCCCCCCC(=O)OCCCO[C@@H]1O[C@H](CS(=O)(=O)[O-])[C@@H](O)[C@H](O)[C@H]1O.[Na+]` [βSQAP C18:0, 3-O-(6-sulfo-β-D-quinovopyranosyl)-1-O-stearoyl-propane-1,3-diol sodium salt], the tube formation result in data set [2] (setting [11]) was “inhibited tube formation in a concentration-dependent manner”.
Same read-out and setting: in the case of `CCCCCCCC/C=C\CCCCCCCC(=O)OCCCO[C@@H]1O[C@H](CS(=O)(=O)[O-])[C@@H](O)[C@H](O)[C@H]1O.[Na+]` [βSQAP C18:1, 3-O-(6-sulfo-β-D-quinovopyranosyl)-1-O-oleoyl-propane-1,3-diol sodium salt] it was “inhibited tube formation in a concentration-dependent manner”.
